Consider one compound from US8440686B2, “Nalmefene prodrugs” (Janssen Pharmaceutica NV, priority 2008, dated 2013).

This series is described as follows: In vivo PK studies in dog (oral administration): plasma levels of nalmefene. The settings on record: oral administration of nalmefene itself. How it is done:
C.2. In vivo PK Studies in Dog (Oral Administration): Plasma Levels of Nalmefene
Doses at 10 mg/kg or 20 mg/kg body weight of a compound of formula (I) or of nalmefene itself in a solution of 20% HP-β-CD (hydroxypropyl-β-cyclodextrines) were used and orally administered to dogs.
Blood samples were taken over a period of 192 hours after oral administration. Blood samples were processed to obtain plasma. Plasma samples were analysed individually for nalmefene by means of a qualified LC-MS/MS-method.

Take `C=C1CC[C@@]2(O)[C@H]3Cc4ccc(O)c5c4[C@@]2(CCN3CC2CC2)[C@H]1O5` [nalmefene, 17-cyclopropylmethyl-4,5α-epoxy-6-methylenemorphinan-3,14-diol]: the “time for which plasma levels of nalmefene can be measured after oral administration” value is “a few hours”.
